The values below come from patent publication US5698522A, “6-position modified decapeptide LHRH antagonists” (Abbott Laboratories, priority 1995, dated 1997).

*1 amine or outer side, *2 acyl side, *3 side chain or, on linkers, in order; H or OH if unused. Where a SMILES comes first, the peptide text is derived from it. Side-chain parts run from the residue outwards. [ ]: non-standard residue; d: D form. The star is where a group is joined. ξ: configuration not given here. X5 = O=C(NCCCN*)C1=C[C@@H](O)[C@@H](O)[C@H](O)C1; ξTetrahydrofuran2carbonyl = O=C(C1CCCO1)*; dPhe(4-Cl) = N[C@H](Cc1ccc(Cl)cc1)C(=O)O; d2Nal = N[C@H](Cc1ccc2ccccc2c1)C(=O)O; Lys(iPr) = CC(C)NCCCC[C@H](N)C(=O)O; NMeY = CN[C@@H](Cc1ccc(O)cc1)C(=O)O; Pyrazinecarbonyl = O=C(c1cnccn1)*; d3Pal = N[C@H](Cc1cccnc1)C(=O)O; Nicotinoyl = O=C(c1cccnc1)*; dOrn = NCCC[C@@H](N)C(=O)O; 2Furoyl = O=C(c1ccco1)*; CO = O=C([*:1])[*:2]; azaGly = NNC(=O)O; βAla = NCCC(=O)O

For this test, the target named is T1, LHRH receptor (Rattus norvegicus, UniProt P30969).
T1 construct: endogenous in cells
T1 sequence (P30969 1-327): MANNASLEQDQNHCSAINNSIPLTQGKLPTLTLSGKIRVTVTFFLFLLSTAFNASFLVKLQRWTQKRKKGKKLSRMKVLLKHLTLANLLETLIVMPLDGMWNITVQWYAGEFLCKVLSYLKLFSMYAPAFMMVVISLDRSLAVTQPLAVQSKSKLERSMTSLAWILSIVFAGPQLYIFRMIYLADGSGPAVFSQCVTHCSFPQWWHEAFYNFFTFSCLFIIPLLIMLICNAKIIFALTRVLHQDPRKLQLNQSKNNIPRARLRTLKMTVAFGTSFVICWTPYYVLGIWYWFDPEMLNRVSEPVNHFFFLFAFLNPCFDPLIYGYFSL
Nature of the test: in vitro LHRH antagonist potency (pA2) against the agonist leuprolide. Format: cell-based. Particulars: negative logarithm of the antagonist concentration which shifts the response curve produced by the agonist leuprolide to two-fold higher concentration. In short, it runs like this: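 Functional antagonism against the agonist leuprolide. pA2 is the negative log of antagonist concentration that shifts the leuprolide response curve to twofold higher concentration.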
With `CC(=O)N[C@H](Cc1ccc2ccccc2c1)C(=O)N[C@H](Cc1ccc(Cl)cc1)C(=O)N[C@H](Cc1cccnc1)C(=O)N[C@@H](CO)C(=O)N(C)[C@@H](Cc1ccc(O)cc1)C(=O)N[C@H](CCCCNC(=O)NNC(=O)c1ccco1)C(=O)N[C@@H](CC(C)C)C(=O)N[C@@H](CCCCNC(C)C)C(=O)N1CCC[C@H]1C(=O)N[C@H](C)C(N)=O` [Example 2, NAc-D2Nal^1 -D4ClPhe^2 -D3Pal^3 -Ser^4 -NMeTyr^5 -DLys(N-epsilon-Azagly-2-Furoyl)^6 -Leu^7 -Lys(N-epsilon-Isopropyl)^8 -Pro^9 -DAla^10 NH2] (Ac-[d2Nal][dPhe(4-Cl)][d3Pal]S[NMeY][dK]([azaGly-2Furoyl])L[Lys(iPr)]P[dA]-NH2), the Kb (in general, the equilibrium dissociation constant of an antagonist, usually derived from a functional assay) was 0.00141 nM.

Consider `CC(=O)N[C@H](Cc1ccc2ccccc2c1)C(=O)N[C@H](Cc1ccc(Cl)cc1)C(=O)N[C@H](Cc1cccnc1)C(=O)N[C@@H](CO)C(=O)N(C)[C@@H](Cc1ccc(O)cc1)C(=O)N[C@H](CCCCNC(=O)NCCCNC(=O)C1=C[C@@H](O)[C@@H](O)[C@H](O)C1)C(=O)N[C@@H](CC(C)C)C(=O)N[C@@H](CCCNC(=N)N)C(=O)N1CCC[C@H]1C(=O)N[C@H](C)C(N)=O` [Example 42, NAc-D2Nal^1 -D4ClPhe^2 -D3Pal^3 -Ser^4 -NMeTyr^5 -DLys[N-epsilon-(N'-Carbonyl-Diaminopropane-N"-Shikimyl)]^6 -Leu^7 -Arg^8 -Pro^9 -DAla^10 NH2] (Ac-[d2Nal][dPhe(4-Cl)][d3Pal]S[NMeY][dK]([CO-X5])LRP[dA]-NH2), for which the Kb was 0.0257 nM.

For `CC(=O)N[C@H](Cc1ccc2ccccc2c1)C(=O)N[C@H](Cc1ccc(Cl)cc1)C(=O)N[C@H](Cc1cccnc1)C(=O)N[C@@H](CO)C(=O)N(C)[C@@H](Cc1ccc(O)cc1)C(=O)N[C@H](CCCCNC(=O)NNC(=O)C1CCCO1)C(=O)N[C@@H](CC(C)C)C(=O)N[C@@H](CCCCNC(C)C)C(=O)N1CCC[C@H]1C(=O)N[C@H](C)C(N)=O` (stereo partly shown) [Example 5a, NAc-D2Nal^1 -D4ClPhe^2 -D3Pal^3 -Ser^4 -NMeTyr^5 -DLys(N-epsilon-Azagly-2-Tetrahydrofuroyl)^6 -Leu^7 -Lys(N-epsilon-Isopropyl)^8 -Pro^9 -DAla^10 NH2] (Ac-[d2Nal][dPhe(4-Cl)][d3Pal]S[NMeY][dK]([azaGly-ξTetrahydrofuran2carbonyl])L[Lys(iPr)]P[dA]-NH2), the Kb is 0.0191 nM.

`CC(=O)N[C@H](Cc1ccc2ccccc2c1)C(=O)N[C@H](Cc1ccc(Cl)cc1)C(=O)N[C@H](Cc1cccnc1)C(=O)N[C@@H](CO)C(=O)N(C)[C@@H](Cc1ccc(O)cc1)C(=O)N[C@H](CCCNC(=O)NNC(=O)c1cccnc1)C(=O)N[C@@H](CC(C)C)C(=O)N[C@@H](CCCCNC(C)C)C(=O)N1CCC[C@H]1C(=O)N[C@H](C)C(N)=O` [Example 53a, NAc-D2Nal^1 -D4ClPhe^2 -D3Pal^3 -Ser^4 -NMeTyr^5 -DOrn(N-epsilon-Azagly-Nicotinyl)^6 -Leu^7 -Lys(N-epsilon-Isopropyl)^8 -Pro^9 -DAla^10 NH2] (Ac-[d2Nal][dPhe(4-Cl)][d3Pal]S[NMeY][dOrn]([azaGly-Nicotinoyl])L[Lys(iPr)]P[dA]-NH2): the Kb is 0.0331 nM.

With `CC(=O)N[C@H](Cc1ccc2ccccc2c1)C(=O)N[C@H](Cc1ccc(Cl)cc1)C(=O)N[C@H](Cc1cccnc1)C(=O)N[C@@H](CO)C(=O)N(C)[C@@H](Cc1ccc(O)cc1)C(=O)N[C@H](CCCNC(=O)CNC(=O)c1cccnc1)C(=O)N[C@@H](CC(C)C)C(=O)N[C@@H](CCCNC(=N)N)C(=O)N1CCC[C@H]1C(=O)N[C@H](C)C(N)=O` [Example 49a, NAc-D2Nal^1 -D4ClPhe^2 -D3Pal^3 -Ser^4 -NMeTyr^5 -DOrn(N-epsilon-Gly-Nicotinyl)^6 -Leu^7 -Arg^8 -Pro^9 -DAla^10 NH2] (Ac-[d2Nal][dPhe(4-Cl)][d3Pal]S[NMeY][dOrn]([Gly-Nicotinoyl])LRP[dA]-NH2), the Kb is 0.0155 nM.

For `CC(=O)N[C@H](Cc1ccc2ccccc2c1)C(=O)N[C@H](Cc1ccc(Cl)cc1)C(=O)N[C@H](Cc1cccnc1)C(=O)N[C@@H](CO)C(=O)N(C)[C@@H](Cc1ccc(O)cc1)C(=O)N[C@H](CCCCNC(=O)CCNC(=O)CNC(=O)c1ccco1)C(=O)N[C@@H](CC(C)C)C(=O)N[C@@H](CCCCNC(C)C)C(=O)N1CCC[C@H]1C(=O)N[C@H](C)C(N)=O` [Example 57c, NAc-D2Nal^1 -D4ClPhe^2 -D3Pal^3 -Ser^4 -NMeTyr^5 -DLys(N-epsilon-beta-alanyl-glycyl-furoyl)^6 -Leu^7 -Lys(Isp)^8 -Pro^9 -DAla^10 NH2] (Ac-[d2Nal][dPhe(4-Cl)][d3Pal]S[NMeY][dK]([βAla-Gly-2Furoyl])L[Lys(iPr)]P[dA]-NH2), the Kb was 0.0186 nM.

On to `CC(=O)N[C@H](Cc1ccc2ccccc2c1)C(=O)N[C@H](Cc1ccc(Cl)cc1)C(=O)N[C@H](Cc1cccnc1)C(=O)N[C@@H](CO)C(=O)N(C)[C@@H](Cc1ccc(O)cc1)C(=O)N[C@H](CCCCNC(=O)CNC(=O)c1cnccn1)C(=O)N[C@@H](CC(C)C)C(=O)N[C@@H](CCCNC(=N)N)C(=O)N1CCC[C@H]1C(=O)N[C@H](C)C(N)=O` [Example 51e, NAc-D2Nal^1 -D4ClPhe^2 -D3Pal^3 -Ser^4 -NMeTyr^6 -DLys(N-epsilon-Gly-2-Pyrazinecarbonyl)^6 -Leu^7 -Arg^8 -Pro^9 -DAla^10 NH2] (Ac-[d2Nal][dPhe(4-Cl)][d3Pal]S[NMeY][dK]([Gly-Pyrazinecarbonyl])LRP[dA]-NH2), for which the Kb is 0.00692 nM.
